Measured values from ChEMBL document CHEMBL1149062, “A Sesquiterpene Quinone and Hydroquinone from the Southern Australian Marine Sponge, Thorecta choanoides” (J Nat Prod, 1994).
Active and inactive are the calls of the source. The rule behind the calls is not given here.

Tested on: Human immunodeficiency virus
Assay: Antiviral activity against HIV assessed as inhibition of viral replication
Assay type: functional, organism-based

Structure (SMILES) | Activity
COc1cc(O)cc(C/C=C(\C)CC/C=C(\C)CCC=C(C)C)c1O | inactive
COC1=CC(=O)C=C(C/C=C(\C)CC/C=C(\C)CCC=C(C)C)C1=O | inactive
